# Measurements published in the supplement of paper PMC10307832.
# Tests used:
# Test in all cases: relative viability (nuclei count vs DMSO), 5 days (fraction); higher = more cells survive
# Erlotinib + Crizotinib = compound: C#Cc1cccc(Nc2ncnc3cc(OCCOC)c(OCCOC)cc23)c1 [Erlotinib] + C[C@@H](Oc1cc(-c2cnn(C3CCNCC3)c2)cnc1N)c1c(Cl)ccc(F)c1Cl [Crizotinib] (partner 1 µM)
# Procedure, shortened: (§1)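 One day after seeding in 1536-well plates, lung cancer cell lines were dosed by pin tool. Dosing was either single-drug or a fixed anchor-drug dose plus five library-drug doses (not always all listed) in √10 steps. After 5 days, nuclei were stained in one fix-and-stain step and counted on 4× images, and relative viability is the nuclei count of treated wells over that of vehicle wells, given as the median of duplicate plates.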
# Erlotinib + Alpelisib = compound: C#Cc1cccc(Nc2ncnc3cc(OCCOC)c(OCCOC)cc23)c1 [Erlotinib] + Cc1nc(NC(=O)N2CCC[C@H]2C(N)=O)sc1-c1ccnc(C(C)(C)C(F)(F)F)c1 [Alpelisib] (partner 2 µM)
# Procedure, shortened: as §1
# Erlotinib + Decitabine = compound: C#Cc1cccc(Nc2ncnc3cc(OCCOC)c(OCCOC)cc23)c1 [Erlotinib] + Nc1ncn([C@H]2C[C@H](O)[C@@H](CO)O2)c(=O)n1 [Decitabine] (partner 2 µM)
# Procedure, shortened: as §1
# AT9283 + Trametinib = compound: O=C(Nc1c[nH]nc1-c1nc2ccc(CN3CCOCC3)cc2[nH]1)NC1CC1 [AT9283] + CC(=O)Nc1cccc(-n2c(=O)n(C3CC3)c(=O)c3c(Nc4ccc(I)cc4F)n(C)c(=O)c(C)c32)c1 [Trametinib] (partner 0.02 µM)
# Procedure, shortened: as §1
# AT9283 + Foretinib = compound: O=C(Nc1c[nH]nc1-c1nc2ccc(CN3CCOCC3)cc2[nH]1)NC1CC1 [AT9283] + COc1cc2c(Oc3ccc(NC(=O)C4(C(=O)Nc5ccc(F)cc5)CC4)cc3F)ccnc2cc1OCCCN1CCOCC1 [Foretinib] (partner 0.25 µM)
# Procedure, shortened: as §1
Cell Line,relative viability (Erlotinib + Crizotinib; first compound 0.02 µM),relative viability (Erlotinib + Crizotinib; first compound 0.2 µM),relative viability (Erlotinib + Crizotinib; first compound 0.6325 µM),relative viability (Erlotinib + Crizotinib; first compound 2 µM),relative viability (Erlotinib + Alpelisib; first compound 0.02 µM),relative viability (Erlotinib + Alpelisib; first compound 0.2 µM),relative viability (Erlotinib + Alpelisib; first compound 0.6325 µM),relative viability (Erlotinib + Alpelisib; first compound 2 µM),relative viability (Erlotinib + Decitabine; first compound 0.2 µM),relative viability (Erlotinib + Decitabine; first compound 0.6325 µM),relative viability (Erlotinib + Decitabine; first compound 2 µM),relative viability (AT9283 + Trametinib; first compound 0.003 µM),relative viability (AT9283 + Trametinib; first compound 0.03 µM),relative viability (AT9283 + Trametinib; first compound 0.09487 µM),relative viability (AT9283 + Trametinib; first compound 0.3 µM),relative viability (AT9283 + Foretinib; first compound 0.003 µM),relative viability (AT9283 + Foretinib; first compound 0.03 µM),relative viability (AT9283 + Foretinib; first compound 0.09487 µM),relative viability (AT9283 + Foretinib; first compound 0.3 µM),relative viability (Erlotinib + Decitabine; first compound 0.02 µM)
LU99A,0.612,0.607,0.64,0.432,0.644,0.478,0.562,0.333,0.92,0.983,0.765,0.539,0.327,0.178,0.217,0.751,0.34,0.233,0.237,–
NCI-H650,0.735,0.803,0.903,0.662,1.22,1.25,1.11,1.06,0.313,0.303,0.307,0.976,0.906,0.394,0.179,1.08,0.958,0.332,0.154,0.34
HCC-827,0.371,0.195,0.174,0.177,0.3,0.171,0.172,0.148,0.215,0.111,0.169,0.492,0.437,0.257,0.204,1.05,0.745,0.331,0.244,0.21
201T,1,0.943,0.905,0.951,0.999,0.968,0.966,–,0.793,0.824,0.8,0.734,0.753,0.388,0.338,1.12,1.07,0.274,0.247,0.851
NCI-H2009,1.02,1.07,1.15,–,1.24,1.16,1.17,1.13,0.347,0.35,0.374,0.346,0.267,0.17,0.0856,1.29,1.07,0.438,0.29,0.333
EKVX,1.04,0.457,0.287,0.147,0.835,0.403,0.315,0.116,0.232,0.234,0.212,0.361,0.345,0.32,0.191,0.775,0.728,0.626,0.257,0.341
LC-2-ad,0.468,0.509,0.458,0.329,0.909,0.843,0.834,0.686,0.79,0.735,0.656,0.872,0.707,0.5,0.236,0.881,0.71,0.336,0.225,0.889
HCC-15,0.784,0.833,0.936,0.7,0.897,0.844,0.913,0.77,0.623,0.644,0.563,0.377,0.381,0.178,0.149,1.02,0.397,0.161,0.19,0.642
PC-3 [JPC-3],0.887,0.409,0.324,0.377,0.799,0.368,0.352,0.323,0.446,0.429,0.431,0.718,0.672,0.71,0.481,1,0.974,0.591,0.543,0.842
LK-2,0.217,0.228,0.198,0.227,0.932,0.976,1.33,1.03,0.291,0.346,0.262,0.746,0.759,0.195,0.194,0.965,0.31,0.159,0.129,0.294
LOU-NH91,0.601,0.54,0.55,0.499,0.539,0.495,0.527,0.512,0.626,0.688,0.602,0.801,0.788,0.536,0.493,0.913,0.887,0.548,0.375,0.715
NCI-H596,0.952,0.961,1.02,0.828,0.444,0.456,0.492,0.376,0.926,0.999,0.985,0.76,0.868,0.566,0.635,0.813,0.822,0.744,0.59,1.21
NCI-H3122,0.287,0.262,0.258,0.241,–,0.882,0.872,0.736,0.402,0.443,0.386,0.277,0.247,0.168,0.097,0.803,0.852,0.284,0.0779,0.533
NCI-H647,1.2,1.09,1.26,0.811,0.955,1.18,–,1.02,0.392,0.442,0.456,0.46,0.47,0.138,0.173,1.41,0.396,0.273,0.202,0.422
EMC-BAC-2,0.806,0.68,0.83,0.63,0.762,0.649,0.685,0.542,0.882,0.951,0.82,0.923,0.58,0.362,0.336,1.04,0.305,0.289,0.208,–
SK-LU-1,1.26,0.914,0.834,0.727,1.36,1.01,0.962,0.631,0.707,0.634,0.592,0.508,0.424,0.288,0.279,0.925,0.385,0.214,0.27,0.661
